Reference: the NIST ThermoML archive (doi:10.1021/je020125e)
Where “and” joins values, the source holds several entries; their conditions need not be identical. Equal values may be shown once. ± gives the expanded uncertainty stated by the source.

Settings: 101.33 kPa, Liquid, Hot wire method

CCC(C)(C)CC [3,3-dimethylpentane]
Settings | thermal conductivity [W/m/K] | thermal diffusivity [m2/s]
256.11 K | 0.1116 ± 0.00091 | –
256.71 K | 0.1112 ± 0.00091 | –
256.82 K | – | 7.8e-08 ± 1.5e-09
257.04 K | 0.1113 ± 0.00091 | –
257.62 K | – | 7.76e-08 ± 1.5e-09
258.25 K | – | 7.71e-08 ± 1.5e-09
276.17 K | 0.106 ± 0.00087 | –
276.5 K | 0.1058 ± 0.00087 | –
276.78 K | 0.1057 ± 0.00087 | –
276.87 K | – | 7.25e-08 ± 1.4e-09
277.64 K | – | 7.2e-08 ± 1.4e-09
278.3 K | – | 7.18e-08 ± 1.4e-09
296.01 K | 0.1005 ± 0.00083 | –
296.03 K | 0.1006 ± 0.00083 | –
296.39 K | 0.1004 ± 0.00083 | –
296.63 K | 0.1002 ± 0.00083 | –
296.64 K | – | 6.59e-08 ± 1.3e-09
296.69 K | – | 6.66e-08 ± 1.3e-09
297.52 K | – | 6.68e-08 ± 1.3e-09
298.08 K | – | 6.59e-08 ± 1.3e-09
316.38 K | 0.09528 ± 0.0008 | –
316.67 K | 0.09499 ± 0.00079 | –
316.93 K | 0.09481 ± 0.00079 | –
317.05 K | – | 6.22e-08 ± 1.2e-09
317.7 K | – | 6.09e-08 ± 1.2e-09
318.3 K | – | 6.05e-08 ± 1.2e-09
333.75 K | 0.09074 ± 0.00076 | –
334.1 K | 0.09063 ± 0.00076 | –
334.37 K | 0.09047 ± 0.00076 | 5.74e-08 ± 1.1e-09
335.16 K | – | 5.76e-08 ± 1.1e-09
335.77 K | – | 5.74e-08 ± 1.1e-09

CCC(CC)CC [3-ethylpentane]
Settings | thermal conductivity [W/m/K] | thermal diffusivity [m2/s]
257.28 K | 0.1253 ± 0.0023 | –
257.54 K | 0.1252 ± 0.0023 | –
257.83 K | 0.1251 ± 0.0023 | –
258.36 K | – | 8.28e-08 ± 2.1e-09
259.11 K | – | 8.26e-08 ± 2.1e-09
259.89 K | – | 8.25e-08 ± 2.1e-09
277.62 K | 0.119 ± 0.0022 | –
277.89 K | 0.1188 ± 0.0022 | –
278.19 K | 0.1187 ± 0.0022 | –
278.75 K | – | 7.78e-08 ± 2e-09
279.49 K | – | 7.73e-08 ± 2e-09
280.3 K | – | 7.72e-08 ± 2e-09
296.33 K | 0.1132 ± 0.0021 | –
296.62 K | 0.113 ± 0.0021 | –
296.78 K | 0.113 ± 0.0021 | –
297.48 K | – | 7.29e-08 ± 1.9e-09
298.26 K | – | 7.28e-08 ± 1.9e-09
298.69 K | – | 7.28e-08 ± 1.9e-09
313.96 K | 0.1081 ± 0.002 | –
314.27 K | 0.1079 ± 0.002 | –
314.58 K | 0.1078 ± 0.002 | –
315.16 K | – | 6.95e-08 ± 1.8e-09
315.99 K | – | 6.93e-08 ± 1.8e-09
316.82 K | – | 6.9e-08 ± 1.8e-09
331.22 K | 0.1032 ± 0.0019 | –
331.29 K | 0.1029 ± 0.0019 | –
331.56 K | 0.1031 ± 0.0019 | –
332.45 K | – | 6.59e-08 ± 1.7e-09
333.34 K | – | 6.59e-08 ± 1.7e-09
334.2 K | – | 6.55e-08 ± 1.7e-09

CCCCC(C)CC (configuration not stated) [3-methylheptane]
Settings | thermal conductivity [W/m/K] | thermal diffusivity [m2/s]
259.08 K | 0.1255 ± 0.0018 | –
259.32 K | 0.1253 ± 0.0018 | –
259.58 K | 0.1252 ± 0.0018 | –
260.01 K | – | 8.29e-08 ± 1.9e-09
260.65 K | – | 8.28e-08 ± 1.9e-09
261.32 K | – | 8.27e-08 ± 1.9e-09
277.99 K | 0.1204 ± 0.0017 | –
278.23 K | 0.1203 ± 0.0017 | –
278.37 K | 0.1202 ± 0.0017 | –
278.95 K | – | 7.83e-08 ± 1.7e-09
279.57 K | – | 7.83e-08 ± 1.7e-09
279.93 K | – | 7.84e-08 ± 1.8e-09
297.36 K | 0.115 ± 0.0016 | –
297.63 K | 0.115 ± 0.0016 | –
297.91 K | 0.115 ± 0.0016 | –
298.32 K | – | 7.41e-08 ± 1.7e-09
299.02 K | – | 7.44e-08 ± 1.7e-09
299.76 K | – | 7.47e-08 ± 1.7e-09
315.56 K | 0.1101 ± 0.0015 | –
315.84 K | 0.1101 ± 0.0015 | –
316.12 K | 0.1099 ± 0.0015 | –
316.52 K | – | 6.98e-08 ± 1.6e-09
317.22 K | – | 7e-08 ± 1.6e-09
317.93 K | – | 6.98e-08 ± 1.6e-09
331.93 K | 0.1058 ± 0.0015 | –
332.21 K | 0.1057 ± 0.0015 | –
332.51 K | 0.1056 ± 0.0015 | –
332.93 K | – | 6.7e-08 ± 1.5e-09
333.64 K | – | 6.7e-08 ± 1.5e-09
334.38 K | – | 6.69e-08 ± 1.5e-09

CCCC(C)CC (configuration not stated) [3-methylhexane]
Settings | thermal conductivity [W/m/K] | thermal diffusivity
256.62 K | 0.1236 ± 0.00085 | –
257 K | 0.1233 ± 0.00085 | –
257.38 K | 0.1231 ± 0.00085 | –
257.59 K | – | 8.59e-08 ± 1.6e-09 m2/s
258.63 K | – | 8.5e-08 ± 1.6e-09 m2/s
259.54 K | – | 8.43e-08 ± 1.6e-09 m2/s
269.72 K | 0.1196 ± 0.00082 | –
270.11 K | 0.1193 ± 0.00082 | –
270.44 K | 0.1191 ± 0.00082 | –
270.7 K | – | 8.14e-08 ± 1.5e-09 m2/s
271.73 K | – | 8.1e-08 ± 1.5e-09 m2/s
272.58 K | – | 8.04e-08 ± 1.5e-09 m2/s
284.9 K | 0.115 ± 0.0008 | –
285.32 K | 0.1148 ± 0.0008 | –
285.66 K | 0.1146 ± 0.00079 | –
285.92 K | – | 7.81e-08 ± 1.5e-09 m2/s
287.01 K | – | 7.78e-08 ± 1.5e-09 m2/s
287.89 K | – | 7.72e-08 ± 1.4e-09 m2/s
296.55 K | 0.1113 ± 0.00077 | –
296.95 K | 0.1113 ± 0.00077 | –
297.35 K | 0.111 ± 0.00077 | –
297.62 K | – | 7.5e-08 ± 1.4e-09 m2/s
298.65 K | – | 7.47e-08 ± 1.4e-09 m2/s
299.67 K | – | 7.41e-08 ± 1.4e-09 m2/s
311.54 K | 0.1073 ± 0.00075 | –
311.97 K | 0.107 ± 0.00075 | –
312.34 K | 0.1068 ± 0.00074 | –
312.6 K | – | 7.22e-08 ± 1.4e-09 m2/s
313.66 K | – | 7.08e-08 ± 1.3e-09 m2/s
314.6 K | – | 7.07e-08 ± 1.3e-09 m2/s
321.52 K | 0.1046 ± 0.00073 | –
321.98 K | 0.1042 ± 0.00073 | –
322.34 K | 0.104 ± 0.00073 | –
322.62 K | – | 7.02e-08 ± 1.3e-09 m2/s
323.75 K | – | 6.94e-08 ± 1.3e-09 m2/s
324.66 K | – | 6.86e-08 m2/s and 6.87e-08 m2/s
332.24 K | 0.1017 ± 0.00072 | –
332.69 K | 0.1013 ± 0.00071 | –
333.09 K | 0.1011 ± 0.00071 | –
333.3 K | – | 6.69e-08 ± 1.3e-09 m2/s
334.41 K | – | 6.61e-08 ± 1.3e-09 m2/s
335.4 K | – | 6.61e-08 ± 1.3e-09 m2/s
343.42 K | 0.09857 ± 0.0007 | –
343.89 K | 0.09831 ± 0.00069 | –
344.28 K | 0.09813 ± 0.00069 | –
344.3 K | 0.09807 ± 0.00069 | –
344.46 K | – | 6.42e-08 ± 1.2e-09 m2/s
345.61 K | – | 6.37e-08 ± 1.2e-09 m2/s
346.56 K | – | 6.32e-08 ± 1.2e-09 m2/s
346.62 K | – | 6.37e-08 ± 1.2e-09 m2/s

CCC(C)CC [3-methylpentane]
Settings | thermal conductivity [W/m/K] | thermal diffusivity [m2/s]
256.68 K | 0.1196 ± 0.00097 | –
257 K | 0.1195 ± 0.00097 | –
257.43 K | 0.1193 ± 0.00097 | –
257.89 K | – | 8.31e-08 ± 1.6e-09
258.67 K | – | 8.27e-08 ± 1.6e-09
259.75 K | – | 8.22e-08 ± 1.6e-09
276.71 K | 0.1129 ± 0.00092 | –
277.02 K | 0.1128 ± 0.00092 | –
277.46 K | 0.1126 ± 0.00092 | –
277.98 K | – | 7.74e-08 ± 1.5e-09
278.74 K | – | 7.71e-08 ± 1.5e-09
279.82 K | – | 7.67e-08 ± 1.5e-09
296.39 K | 0.1066 ± 0.00087 | –
296.74 K | 0.1065 ± 0.00087 | –
297.2 K | 0.1063 ± 0.00087 | –
297.69 K | – | 7.21e-08 ± 1.4e-09
298.55 K | – | 7.2e-08 ± 1.4e-09
299.63 K | – | 7.16e-08 ± 1.4e-09
314.22 K | 0.1013 ± 0.00084 | –
314.59 K | 0.1012 ± 0.00083 | –
315.08 K | 0.101 ± 0.00083 | –
315.57 K | – | 6.8e-08 ± 1.3e-09
316.44 K | – | 6.8e-08 ± 1.3e-09
317.58 K | – | 6.75e-08 ± 1.3e-09
328.36 K | 0.09736 ± 0.00081 | –
328.75 K | 0.09723 ± 0.0008 | –
329.26 K | 0.09705 ± 0.0008 | –
329.73 K | – | 6.51e-08 ± 1.3e-09
330.64 K | – | 6.49e-08 ± 1.3e-09
331.82 K | – | 6.44e-08 ± 1.3e-09
